Patent publication US10647680B2, “Urea compound, preparation method therefor and medical use thereof” (Ancureall Pharmaceutical (Shanghai) Co., Ltd., priority 2016, dated 2020)
Where two headings read alike, the source gives them in different places.

Key:
[1] = Bidirectional transmembrane transport and P-gp efflux in Caco-2 monolayer cell model; format: in vitro ADME; details: human
Experimental: (§1) The Caco-2 cell transport experiment was performed using compound 77 of the present invention as a representative example.
(§2) Main procedure: Caco-2 cells (ATCC, HTB-37) were cultured in high-glucose DMEM culture medium (Hyclone) containing 10% fetal calf serum (GIBCO) and penicillin-streptomycin (100 units/mL each) (Sigma). Cells were cultured at 37° C. in an incubator containing 5% CO2. In the transport experiment, Caco-2 cells were inoculated on a filter of a 12-well Transwell plate at a density of 2×10^5 cells/well (Coming Costar, catalog #3401, 1.12 cm^2, 0.4 um of pore size). After inoculation, the Caco-2 cells would form intact cell monolayers after 21 days, including P-gp efflux transporter expression and transepithelial cell resistance (TEER) formation. During the period, the culture medium was replaced once every other day. The volume of culture medium at the transwell membrane Apical Side (A) and Basolateral Side (B) were 0.5 mL and 1.5 mL, respectively. Before the transport experiment (day 21), the preheated HBSS buffer (137 mM NaCl, 4.17 mM NaHCO3, 0.34 mM Na2HPO4, 5.37 mM KCl, 0.44 mM KH2PO4, 1.26 mM CaCl2, 0.49 mM MgCl2, 0.41 mM MgSO4, 5.55 Mm D-Glucose, 10 mM HEPES, pH 7.4) was used firstly to wash Caco-2 cell monolayers for three times, and placed to at 37° C. for incubation for 30 minutes, then TEER values were determined using a cell resistometer (Millicell-ERS2) to confirm the integrity and compactness of the cell monolayers. When the HBSS buffer solution on the transmembrane A-side or B-side was replaced with the test compound, the transport experiment was started.
(§3) Finally, after incubation at 37° C. for 2 hours, the transport experiment was terminated and 50 uL of sample solution was taken from both sides of the Transwell filter membrane separately and added to 100 μL of acetonitrile comprising internal standard compound and mixed well, then centrifuged at 13000 rpm, 4° C. for 10 min, and finally 10 μL (or a specific volume) of supernatant was used for LC-MS/MS sample analysis.
(§4) For each compound, transport experiments in the A-B and B-A directions had three replicates, i.e. n=3.
(§5) LC-MS/MS Sample Analysis: The high performance liquid chromatography (HPLC) system used in this research consisted of two pumps (Shimadzu LC-20AD) and an autosampler (Shimadzu SIL-20AC). The HPLC system was connected in series with an API 4000 triple quadrupole mass spectrometer (Applied Biosystems). The API 4000 triple quadrupole mass spectrometer was equipped with an electrospray ionization (ESI) source. Ultrapurified nitrogen was used as curtain gas, GAS1, GAS2, and collision gas, at flow rates of 20 L/h, 55 L/h, 65 L/h, and 6 L/hr, respectively. The atomization temperature of the ion source was set to 500° C. Data was collected using the software Analyst 1.5.
(§6) Data analysis: The apparent permeability coefficient (Papp) can be calculated by the rate at which a compound permeates the monolayer of Caco-2 cells. Its value is related to the absorption of the compound in vivo. After concentrations at A side and B side were determined by LC-MS/MS, the Papp value in the A-B or B-A direction was calculated according to the following formula: Papp(A→B) or Papp(B→A)=(dQ/dt)/(A*C0)=(C2h*V)/(t*π2*C0)
(§7) In the above formula, dQ/dt is the permeation rate, i.e. the amount of compound that permeated in the dt time, C0 is the initial concentration of drug on the administration side, and A is the surface area of the cell monolayer, i.e. the membrane area.
(§8) After obtaining the Papp (A→B) and Papp (B→A) values of the compound, the Efflux Ratio (ER) of the compound could be calculated by the following formula: Efflux Ratio(ER)=Papp(B−A)/Papp(A−B).
(§9) When the ratio of efflux was >2, the compound could be considered as the substrate of the efflux transporter.

[2] = tested on: P-gp; assay: as above; format: in vitro ADME; details: human, Caco-2, pH 7.4; Concentration 10, Inhibitor − (without P-gp inhibitor GF120918); read-out: Efflux Ratio Papp (B→A)/Papp (A→B)
Experimental: as §1, §2, §3, §4, §5, §6, §7, §8, §9

C[C@H]1O[C@@H](O[C@H]2[C@@H](O)C[C@H](O[C@H]3[C@@H](O)C[C@H](O[C@H]4CC[C@@]5(C)[C@H](CC[C@@H]6[C@@H]5C[C@@H](O)[C@]5(C)[C@@H](C7=CC(=O)OC7)CC[C@]65O)C4)O[C@@H]3C)O[C@@H]2C)C[C@H](O)[C@@H]1O [Digoxin]
Papp A→B at 2 h ([1]; Caco-2, pH 7.4, Caco-2 monolayer cell model, transmembrane permeability, read-out: Papp(A→B) value (conclusions under the table)): < 1 ×10⁻⁶ cm/s | Papp B→A at 2 h ([1]; Caco-2, pH 7.4, Concentration 10, Inhibitor − (without P-gp inhibitor GF120918)): 20.4 ×10⁻⁶ cm/s | Papp A→B at 2 h ([1]; Caco-2, pH 7.4, Concentration 10, Inhibitor − (without P-gp inhibitor GF120918), read-out: Papp (A→B)): 0.06 ×10⁻⁶ cm/s | efflux ratio at 2 h [2]: 322
